Marks after values point to notes of the source that are not given here.
What was measured:
CYP2B1 mRNA = experiment: Melting temperature (Tm) of ODNs used in Example 1; assay type: physicochemical, rat
Excerpt: The oligo 2B1-ATG (SEQ ID NO: 16) is a 22-mer having 100% complementarity to a region containing the AUG start codon on the rat CYP2B1 mRNA (SEQ ID NO: 39, shown below Table). The oligo 2B1-NRM (SEQ ID NO: 17) has 100% complementarity to the CYP2B1 mRNA starting at base 855. The oligo 2B1-BPB (SEQ ID NO: 36) has the sequence of 2B1-NRM with a two base deletion (indicated in bold in the 2B1-NRM sequence). Each of the oligos 2B1-3MM (SEQ ID NO: 37) and 2B1-CMM (SEQ ID NO: 38) has 2 bases reversed (indicated in bold) compared to the BPB sequence. […] The table gives the melting temperature (Tm), molecular weight, and % homology to CYP2B1 mRNA of each sequence.

CYP2B1 = experiment: PROD assay of liver microsomes (CYP2B1 enzyme activity); assay type: in vivo, rat; conditions: ODN alone
Protocol: Control rats were injected with saline only.
CYP2B1 enzyme activity was determined by pentoxyresorufin O-dealkylation (PROD) activity (Burke et al., 1985). For each microsomal sample, 1 mg protein in 1 ml 0.1 M potassium phosphate buffer, 1 ml 2 μM 5-pentoxyresorufin (Pierce, Rockford, Ill.), and 17 μl 60 mM NADPH were mixed and incubated for 10 minutes at 37° C. The mixture was then added to a 2 ml cuvette and read on a RF5000U spectrofluorophotometer (Shimadzu, Columbia, Md.), using an excitation wavelength of 530 nm and emission wavelength of 585 nm. Concentrations were calculated from a calibration curve of resorufin standards (Pierce, Rockford, Ill.). Results were recorded in nmol resorufin/mg protein/min.

CYP2B1 protein = experiment: ELISA for CYP2B1 protein in liver microsomes; conditions: for HRP activity (CYP2B1 ELISA): liver microsomes
Protocol: (§1) Rats were injected intraperitoneally (i.p.) with the indicated ODNs (see Table 3) once per day for 2 days, in an amount of lmg/kg body weight per injection. Control rats were injected with saline only. Rats in the “PB” groups were injected i.p. with phenobarbital (Mallinckrodt, St. Louis) at 80 mg/kg body weight per injection, once per day for 2 days. In the groups in which PB was co-administered with ODN, injections were administered simultaneously. Total volume of injections for all groups was […]. Animals in the “2B1-NRM+PB+PRETREATMENT” group also received a dose of 1 mg/kg of 2B1-NRM oligomer (SEQ ID NO: 17) 24 hours prior to the first administration of 2B1-NRM plus PB.
Microsomes were prepared, as described by Franklin and Estabrook (Arch. Biochem. Biophys. 143:318-29, 1971), for determination of enzyme level and activity. The rats were sacrificed using ethyl ether, and livers were perfused with 12 ml of 4% saline via the portal vein and then removed from the animal. The livers were minced, homogenized in 0.25 M sucrose (Sigma) and centrifuged at 8000×G for 20 minutes at 4° C. in a Sorvall RC2-B centrifuge (Dupont). The supernatant was saved, resuspended in 0.25 M sucrose, and centrifuged at 100,000×G for 45 minutes at 4° C. in a Sorvall OTD55B ultracentrifuge (Dupont). The pellet was resuspended in 1.15% KCl (Sigma) and centrifuged at 100,000×G for 1 hour at 4° C. The final pellet was resuspended in an equal volume buffer (10 mM Tris-acetate, 1 mM EDTA, 20% glycerol; Sigma) and frozen at −80° C.
Direct measurement of CYP2B1 protein was performed by an ELISA assay, using an antibody directed to the CYP2B1 protein (Schuurs and Van Weeman, Clin Chim Acta 81(1):1-40, 1977). Fifty μg of microsomal proteins per well were plated in 100 μl 0.35% sodium bicarbonate buffer overnight on a 96 well nunc-immuno plate (InterMed, Skokie, Ill.). The microsomes were washed 3× with 1% bovine serum albumin in PBS (PBS/BSA) and incubated for 1 hr at 37° C. with 200 μl PBS/BSA. The PBS/BSA was removed, and 50 μl of CYP2B1 antibody (Oxygene, Dallas) was added and incubated for 1 hour at 37° C. The microsomes were washed 5× with saline/Tween 20™ (Sigma), and 50 μl horseradish peroxidase (HRP)-conjugated secondary antibody (Bio-Rad) was added. The microsomes were incubated for 1 hour at 37° C., then washed 5× with saline/Tween 20™ and twice with 85% saline. HRP substrate (Kirkegaard & Perry Labs, Gaithersburg, Md.) (100 μl) was added, and the absorbance at 405 nm was read continuously in a microplate reader (Molecular Devices) for 1 hour. Results were recorded as HRP activity in mOD/min.

rat CYP2B1 = experiment: Hexobarbital sleep time in rats; assay type: in vivo
Protocol: Male Sprague-Dawley rats (Sasco, Omaha) weighing between 210 to 290 grams were used for all studies. They were housed in animal quarters at the University of Nebraska Medical Center AAALAC-approved Animal Resource Facility. The animals were exposed to 12 hour light/dark cycle and fed Purina rat chow and tap water ad libitum.
as §1
Forty-eight hours following the first (non-pretreatment) injection of ODN and/or PB, the rats were injected i.p. with 100 mg/kg body weight hexobarbital (Sigma, St. Louis), in a total volume of 1 ml/kg body weight, prepared fresh daily. Sleep time, defined as the time period from when the rat is placed on its back to when it regains its righting reflex, was measured. Sleep times are given in Table 5 as the mean of each animal in the group ±standard deviation.

CYP2E1 = experiment: Microsomal PNP (p-nitrophenol hydroxylase) activity; assay type: in vivo, rat; conditions: liver microsomes
Protocol: Microsomal PNP (p-nitrophenol hydroxylase) activity was used as a measure of induction of CYP2E1, as PB is known to induce many different CYPs, including CYP2E1. CYP2E1 activity was determined by PNP activity as described in Reinke and Moyer, Drug Metab. Dispos. 13:548-52, 1985; Koop, Mol. Phannacol. 29:399404, 1986). Activity was recorded as optical density (OD) per milligram of protein per minute.

CYP3A2 = experiment: Erythromycin demethylation (ED) in liver microsomes; assay type: in vivo, rat; conditions: 1000 μg/day i.p.
Protocol: Sleep time was measured after i.p. injection of 50 mg/kg MZ (Hoffman-La Roche, Nutley, N.J.) at 0 (day 1), 24 (day 2) and 48 h (day 4). The volume of the injection was from 2.0 to 2.4 ml/rat. […] The rats were treated with 0.25, 0.50 or 1.00 mg antisense ODN i.p. immediately after the animal had regained its righting reflex determined at 0 and 24 h. Control rats received saline only. Total volume injection was 0.1 ml in saline.
Microsomes were prepared, as described by Franklin and Estabrook (cited above) for determination of enzyme level and activity.
Erythromycin demethylation (ED) was used a measure of CYP3A2 enzymatic activity (Gonzalez, Pharmacol. Rev. 40:243-87, 1989). Activity was recorded as micromoles of formaldehyde per milligram of protein per minute.

rat CYP3A2 = experiment: Midazolam sleep time in rats; assay type: in vivo; conditions: 1000 μg/day i.p.; MZ 50 mg/kg i.p.
Protocol: Male Sprague-Dawley rats (Sasco, Omaha) weighing between 210 to 290 grams were used for all studies. The animals were exposed to 12 hour light/dark cycle and fed Purina rat chow and tap water ad libitum.
Sleep time was measured after i.p. injection of 50 mg/kg MZ (Hoffman-La Roche, Nutley, N.J.) at 0 (day 1), 24 (day 2) and […]. The volume of the injection was from 2.0 to 2.4 ml/rat. […] […] Control rats received saline only. Total volume injection was 0.1 ml in saline.

[1] = treatment alone (ODN 1 mg/kg or PB 80 mg/kg i.p. once per day for 2 days), hexobarbital 100 mg/kg i.p. at 48 h
[2] = ODN + PB 80 mg/kg injected simultaneously, 2 days, hexobarbital 100 mg/kg i.p.

Row | Compound | Tm (CYP2B1 mRNA) [°C] | PROD activity versus control (in words) (CYP2B1) | HRP activity (CYP2B1 ELISA) (CYP2B1 protein; treatment alone) [mOD/min] | HRP activity versus control (in words) (CYP2B1 protein; treatment alone) | Effect on hexobarbital sleep time (in words) (rat CYP2B1; ODN alone, versus control) | Sleep time, Percent of Control (rat CYP2B1; treatment alone) | Sleep Time (min ± sd) (rat CYP2B1; [1]) | PNP activity versus control (in words) (CYP2E1; treatment alone) | HRP activity versus PB-alone group (in words) (CYP2B1 protein; ODN + PB) | HRP activity (CYP2B1 ELISA) (CYP2B1 protein; ODN + PB) [mOD/min] | Sleep time, Percent of Control (rat CYP2B1; ODN + PB) | Sleep Time (min ± sd) (rat CYP2B1; [2]) | Effect on hexobarbital sleep time (in words) (rat CYP2B1; ODN + PB, versus PB group) | PNP activity versus control (in words) (CYP2E1; ODN + PB) | other results
1 | 2B1-3MM (antisense AAAGAAGAGAGAGCAGGGGA; chemistry not given here) | 49.8 | no change from control | 9.2 ± 5.0 | no change in HRP activity over control microsomes | slightly lengthened sleep time over the control | 132.4% of Control | 31.0 ± 9.6 min | no significant differences in PNP activities from control values | – | – | – | – | – | – | –
2 | 2B1-ATG (antisense GGAGCAAGATACTGGGCTCCAT; chemistry not given here) | 68.0 | no change from control | 13.2 ± 4.4 | no change in HRP activity over control microsomes | did not significantly alter sleep time over control | 87.6% of Control | 20.5 ± 5.3 min | no significant differences in PNP activities from control values | a significant decrease in HRP activity over the PB-alone group | 12.9 ± 5.0 | 82.5% of Control | 19.3 ± 4.4^b min | sleep time increased significantly over that of the PB group | significant increases in PNP activities over that of control | –
3 | 2B1-CMM (antisense AAAGAAGAGAAGGCAGGGAG; chemistry not given here) | 49.5 | no change from control | 10.1 ± 3.3 | no change in HRP activity over control microsomes | did not significantly alter HB sleep time from the control | 98.2% of Control | 23.0 ± 5.3 min | no significant differences in PNP activities from control values | – | – | – | – | – | – | –
4 | 2B1-NRM (antisense AAAGAAGAGAGAGAGCAGGGAG; chemistry not given here) | 50.6 | no change from control | 13.8 ± 5.6 | no change in HRP activity over control microsomes | no effect on sleep time compared to control | 98.2% of Control | 23.0 ± 3.2 min | no significant differences in PNP activities from control values | a decrease in HRP activity over that of the PB-alone treatment group | 17.9 ± 4.6 | 57.7% of Control | 13.5 ± 0.9 min | no observable antisense effect | significant increases in PNP activities over that of control | HRP activity versus PB-alone group (in words) (CYP2B1 protein; ODN + PB + pretreatment): a decrease in HRP activity over that of the PB-alone treatment group; HRP activity (CYP2B1 ELISA) (CYP2B1 protein; ODN + PB/Pretreatment): 18.7 ± 0.3 mOD/min; Effect on hexobarbital sleep time (in words) (rat CYP2B1; ODN pretreatment + PB): essentially the same as without pretreatment; Sleep time, Percent of Control (rat CYP2B1; ODN pretreatment + PB): 56.8% of Control; Sleep Time (min ± sd) (rat CYP2B1; ODN pretreatment one day before ODN + PB, 2 days, hexobarbital 100 mg/kg i.p.): 13.3 ± 3.0 min; PNP activity versus control (in words) (CYP2E1; ODN + PB + pretreatment): significant increases in PNP activities over that of control
5 | CCC1(c2ccccc2)C(=O)NC(=O)NC1=O [Phenobarbital (PB), phenobarbital, reference compound] | – | – | 22.5 ± 4.2 | significantly greater than the activity of microsomes from control rats | – | 48.7% of Control | 11.4 ± 4.5^a min | significant increases in PNP activities over that of control | – | – | – | – | – | – | Sleep Time (min ± sd) (rat CYP2B1; treatment alone (ODN 1 mg/kg or PB 80 mg/kg i.p. once per day for 2 days), hexobarbital 100 mg/kg i.p. at 48 h, listed as PB): about 11.4 min
6 | ATGMYC/PS: PS DNA myc control, SEQ ID NO: 44, 5′-ACGTTGAGGGGCAUCGTCC-3′ (DNA, all phosphorothioate, T or U not given here) | – | – | – | – | – | – | – | – | – | – | – | – | – | – | ED (erythromycin demethylase activity) (CYP3A2): 113 μmol HCOH/mg/min; MZ ST (midazolam sleep time) (rat CYP3A2): 22.8 ± 1.3 min
